Source: the NIST ThermoML archive (doi:10.1016/j.fluid.2015.10.044)

Conditions: Pendant drop shape

CCCCn1cc[n+](C)c1.N#CN=C=[N-] [1-butyl-3-methylimidazolium dicyanamide]
Conditions | surface tension liquid-gas [mN/m]
298.4 K | 50.6
307.9 K | 50.3
318.1 K | 49.7
328.4 K | 48.6
339 K | 48.1
342.9 K | 47.5

CCCCn1cc[n+](C)c1.N#C[S-] [1-butyl-3-methylimidazolium thiocyanate]
Conditions | surface tension liquid-gas [mN/m]
298.1 K | 44.6
308.2 K | 43.5
318.1 K | 43
328.3 K | 42.4
338.5 K | 41.9
342.9 K | 41.6

CCn1cc[n+](C)c1.N#C[C-](C#N)C#N [1-ethyl-3-methyl-1H-imidazolium tricyanomethanide]
Conditions | surface tension liquid-gas [mN/m]
298.3 K | 51.1
308.1 K | 50.7
317.9 K | 49.9
328 K | 49.1
338.9 K | 48.5
343 K | 47.9

CCn1cc[n+](C)c1.N#C[B-](C#N)(C#N)C#N [1-ethyl-3-methylimidazolium tetracyanoborate]
Conditions | surface tension liquid-gas [mN/m]
298.1 K | 49.1
307.8 K | 48.3
318 K | 47.4
328.7 K | 46.6
338.8 K | 45.8
343 K | 45.4

CCCCCCn1cc[n+](C)c1.N#CN=C=[N-] [1-hexyl-3-methylimidazolium dicyanamide]
Conditions | surface tension liquid-gas [mN/m]
298 K | 43
307.9 K | 42.2
318.4 K | 41.6
328.2 K | 41
338.5 K | 40.5
342.7 K | 40.2

CCCCCCn1cc[n+](C)c1.N#C[B-](C#N)(C#N)C#N [1-hexyl-3-methylimidazolium tetracyanoborate]
Conditions | surface tension liquid-gas [mN/m]
298.6 K | 41.5
308.4 K | 40.8
318 K | 40
328 K | 39.2
338.5 K | 38.4
342.9 K | 38.2
